# According to ChEMBL document CHEMBL1201862, “PubChem BioAssay data set” (2004):
#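 Values below derive from 48-hour exposures of cells grown in 96-well plates, with endpoints linearly interpolated between the two concentrations bracketing the appropriate inhibition level. GI50 marks 50% less growth.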 Active and inactive are the calls of the source. No stated cut-off is given here; in the data, active = GI50 up to about 1.1 µM and inactive = higher.
# Assays:
# Test in all cases: NCI-60 cell line screen, 48 h
# HCT-116 = test system: HCT-116
# RPMI-8226 = test system: RPMI-8226
# SF-539 = test system: SF-539
# CAKI-1 = test system: CAKI-1
# CCRF-CEM = test system: CCRF-CEM
# SK-MEL-28 = test system: SK-MEL-28
# IGROV-1 = test system: IGROV-1
# DU-145 = test system: DU-145
# SF-268 = test system: SF-268
# HT-29 = test system: HT-29
# MOLT-4 = test system: MOLT-4
# SNB-19 = test system: SNB-19
# EKVX = test system: EKVX
# SW-620 = test system: SW-620
# OVCAR-4 = test system: OVCAR-4
# HL-60 = test system: HL-60
# LOX IMVI = test system: LOX IMVI
# COLO 205 = test system: COLO 205
# NCI-H226 = test system: NCI-H226
# Malme-3M = test system: Malme-3M
# NCI-H522 = test system: NCI-H522
# Hs-578T = test system: Hs-578T
# OVCAR-3 = test system: OVCAR-3
# HOP-62 = test system: HOP-62
# K562 = test system: K562
# MDA-N = test system: MDA-N
# A549 = test system: A549
# OVCAR-8 = test system: OVCAR-8
# U-251 = test system: U-251
# KM12 = test system: KM12
# SF-295 = test system: SF-295
# TK-10 = test system: TK-10
# SK-MEL-2 = test system: SK-MEL-2
# HCT-15 = test system: HCT-15
# T47D = test system: T47D
# NCI-H23 = test system: NCI-H23
# 786-0 = test system: 786-0
# NCI/ADR-RES = test system: NCI/ADR-RES
# SK-OV-3 = test system: SK-OV-3
# SNB-75 = test system: SNB-75
# BT-549 = test system: BT-549
# HCC 2998 = test system: HCC 2998
# PC-3 = test system: PC-3
# UO-31 = test system: UO-31
# UACC-62 = test system: UACC-62
# MDA-MB-231 = test system: MDA-MB-231
# OVCAR-5 = test system: OVCAR-5
# NCI-H460 = test system: NCI-H460
# SK-MEL-5 = test system: SK-MEL-5
# ACHN = test system: ACHN
# MCF7 = test system: MCF7
# SN12C = test system: SN12C
# RXF 393 = test system: RXF 393
# MDA-MB-435 = test system: MDA-MB-435
# M14 = test system: M14
# UACC-257 = test system: UACC-257
# HOP-92 = test system: HOP-92
# A498 = test system: A498
structure (smiles),measurement,setting,value
O=[N+]([O-])c1ccc(N2N=C(c3ccc4ccccc4c3O)CC2c2ccc(Cl)cc2Cl)c([N+](=O)[O-])c1 (configuration not stated),GI50,HCT-116,23.6 µM (inactive)
same,GI50,RPMI-8226,18.8 µM (inactive)
same,GI50,SF-539,25.6 µM (inactive)
same,GI50,CAKI-1,54.6 µM (inactive)
same,GI50,CCRF-CEM,12.9 µM (inactive)
same,GI50,SK-MEL-28,65.8 µM (inactive)
same,GI50,IGROV-1,23.3 µM (inactive)
same,GI50,DU-145,55.5 µM (inactive)
same,GI50,SF-268,53.1 µM (inactive)
same,GI50,HT-29,40.1 µM (inactive)
same,GI50,MOLT-4,14.9 µM (inactive)
same,GI50,SNB-19,29.3 µM (inactive)
same,GI50,EKVX,37.3 µM (inactive)
same,GI50,SW-620,37.5 µM (inactive)
same,GI50,OVCAR-4,41.7 µM (inactive)
same,GI50,HL-60,7.59 µM (inactive)
same,GI50,LOX IMVI,41.5 µM (inactive)
same,GI50,COLO 205,44.7 µM (inactive)
same,GI50,NCI-H226,49.1 µM (inactive)
same,GI50,Malme-3M,32.2 µM (inactive)
same,GI50,NCI-H522,28 µM (inactive)
same,GI50,Hs-578T,27.9 µM (inactive)
same,GI50,OVCAR-3,33.7 µM (inactive)
same,GI50,HOP-62,38.1 µM (inactive)
same,GI50,K562,15.4 µM (inactive)
same,GI50,MDA-N,40.9 µM (inactive)
same,GI50,A549,28.5 µM (inactive)
same,GI50,OVCAR-8,33.3 µM (inactive)
same,GI50,U-251,28 µM (inactive)
same,GI50,KM12,29 µM (inactive)
same,GI50,SF-295,24.3 µM (inactive)
same,GI50,TK-10,63 µM (inactive)
same,GI50,SK-MEL-2,30.3 µM (inactive)
same,GI50,HCT-15,27.2 µM
same,GI50,T47D,27.7 µM (inactive)
same,GI50,NCI-H23,24.7 µM (inactive)
same,GI50,786-0,28.2 µM (inactive)
same,GI50,NCI/ADR-RES,28.6 µM (inactive)
same,GI50,SK-OV-3,47.8 µM (inactive)
same,GI50,SNB-75,92.7 µM (inactive)
same,GI50,BT-549,49.1 µM (inactive)
same,GI50,HCC 2998,30.3 µM (inactive)
same,GI50,PC-3,35.1 µM (inactive)
same,GI50,UO-31,18.7 µM (inactive)
same,GI50,UACC-62,26.7 µM (inactive)
same,GI50,MDA-MB-231,30.9 µM (inactive)
same,GI50,OVCAR-5,37.2 µM (inactive)
same,GI50,NCI-H460,51.1 µM (inactive)
same,GI50,SK-MEL-5,29.1 µM (inactive)
same,GI50,ACHN,25.2 µM (inactive)
same,GI50,MCF7,40.9 µM (inactive)
same,GI50,SN12C,71 µM (inactive)
same,GI50,RXF 393,25.4 µM (inactive)
same,GI50,MDA-MB-435,29.5 µM (inactive)
same,GI50,M14,> 10 µM (inactive)
same,GI50,UACC-257,48.9 µM (inactive)
Cc1occc1C(=S)Nc1ccc(Cl)c(C(=O)OCC(C)C)c1,GI50,HCT-116,14.4 µM (inactive)
same,GI50,RPMI-8226,19.4 µM (inactive)
same,GI50,SF-539,22.3 µM (inactive)
same,GI50,CAKI-1,21.5 µM (inactive)
same,GI50,CCRF-CEM,26.5 µM (inactive)
same,GI50,SK-MEL-28,16.3 µM (inactive)
same,GI50,IGROV-1,18.1 µM (inactive)
same,GI50,DU-145,18.3 µM (inactive)
same,GI50,SF-268,21.4 µM (inactive)
same,GI50,HT-29,13.2 µM (inactive)
same,GI50,MOLT-4,11.5 µM (inactive)
same,GI50,SNB-19,17.1 µM (inactive)
same,GI50,EKVX,15.6 µM (inactive)
same,GI50,SW-620,19.2 µM (inactive)
same,GI50,OVCAR-4,13.3 µM (inactive)
same,GI50,HL-60,29.4 µM (inactive)
same,GI50,LOX IMVI,14.9 µM (inactive)
same,GI50,COLO 205,16.3 µM (inactive)
same,GI50,NCI-H226,15.3 µM (inactive)
same,GI50,Malme-3M,19.3 µM (inactive)
same,GI50,NCI-H522,14.1 µM (inactive)
same,GI50,Hs-578T,25.1 µM (inactive)
same,GI50,OVCAR-3,22.4 µM (inactive)
same,GI50,K562,12.1 µM (inactive)
same,GI50,MDA-N,21.1 µM (inactive)
same,GI50,A549,20.3 µM (inactive)
same,GI50,OVCAR-8,15.8 µM (inactive)
same,GI50,U-251,17.6 µM (inactive)
same,GI50,HOP-92,17.4 µM (inactive)
same,GI50,KM12,14.4 µM (inactive)
same,GI50,SF-295,16.6 µM (inactive)
same,GI50,TK-10,17.3 µM (inactive)
same,GI50,SK-MEL-2,19.5 µM (inactive)
same,GI50,HCT-15,16.9 µM
same,GI50,T47D,12.8 µM (inactive)
same,GI50,NCI-H23,17.1 µM (inactive)
same,GI50,786-0,16.7 µM (inactive)
same,GI50,NCI/ADR-RES,12.9 µM (inactive)
same,GI50,SK-OV-3,20.9 µM (inactive)
same,GI50,SNB-75,15.3 µM (inactive)
same,GI50,A498,15.9 µM (inactive)
same,GI50,BT-549,17.2 µM (inactive)
same,GI50,HCC 2998,18.9 µM (inactive)
same,GI50,PC-3,16.1 µM (inactive)
same,GI50,UO-31,17.7 µM (inactive)
same,GI50,UACC-62,12.6 µM (inactive)
same,GI50,MDA-MB-231,16.6 µM (inactive)
same,GI50,OVCAR-5,31.8 µM (inactive)
same,GI50,NCI-H460,22.3 µM (inactive)
same,GI50,SK-MEL-5,15.4 µM (inactive)
same,GI50,ACHN,17.9 µM (inactive)
same,GI50,MCF7,14.6 µM (inactive)
same,GI50,SN12C,16.8 µM (inactive)
same,GI50,MDA-MB-435,16.5 µM (inactive)
same,GI50,M14,22.8 µM (inactive)
same,GI50,UACC-257,17.9 µM (inactive)
